Test results published in article PMC6694155, “PTPσ inhibitors promote hematopoietic stem cell regeneration” (Nature Communications, 2019).
Where “and” joins values, the source holds several entries; their conditions need not be identical. Equal values may be shown once.

Assays:
[1] = molecular target: T1, MKP5 (Mitogen-activated Protein Kinase Phosphatase 5) (Homo sapiens, UniProt Q9Y6W6); assay: PhosphataseProfiler screen: MKP5; format: biochemical; conditions: 0.27 g/mL DJ001; replicates
T1 construct: purchased Eurofins Pharma Discovery Services UK
T1 sequence (Q9Y6W6 whole entry, species assumed): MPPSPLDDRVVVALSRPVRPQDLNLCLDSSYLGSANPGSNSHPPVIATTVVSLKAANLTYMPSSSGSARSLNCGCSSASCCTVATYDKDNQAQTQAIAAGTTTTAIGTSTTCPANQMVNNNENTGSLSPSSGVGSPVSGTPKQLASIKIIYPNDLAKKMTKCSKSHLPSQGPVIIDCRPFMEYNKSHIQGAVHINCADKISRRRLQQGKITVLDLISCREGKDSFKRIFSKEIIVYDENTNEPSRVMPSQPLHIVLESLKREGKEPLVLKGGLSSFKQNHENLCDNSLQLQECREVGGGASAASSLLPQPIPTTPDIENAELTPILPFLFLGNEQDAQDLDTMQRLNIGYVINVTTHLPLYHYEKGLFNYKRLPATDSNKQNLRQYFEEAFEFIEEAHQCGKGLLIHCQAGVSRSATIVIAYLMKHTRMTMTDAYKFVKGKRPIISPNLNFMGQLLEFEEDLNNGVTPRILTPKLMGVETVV
Method: (§1) Compound DJ001 was evaluated in a PhosphataseProfiler™ screen at 10 μM and 1 μM (2.7 μg/mL and 0.27 μg/mL) concentrations at Eurofins Pharma Discovery Services UK (Study number UK022-0004033) against a panel of 21 Phosphatases. In each experiment, the respective reference antagonist/agonist was tested directly with DJ001 and the data were compared with historical values determined at Eurofins. DJ001 compound inhibition was calculated as percentage inhibition of the enzymatic activity compared with control.

[2] = molecular target: T2, PTPN22 (Protein Tyrosine Phosphatase Non-Receptor Type 22) (Homo sapiens, UniProt Q9Y2R2); assay: PhosphataseProfiler screen: PTPN22; format: biochemical; conditions: replicates
T2 construct: purchased Eurofins Pharma Discovery Services UK
T2 sequence (Q9Y2R2 whole entry, species assumed): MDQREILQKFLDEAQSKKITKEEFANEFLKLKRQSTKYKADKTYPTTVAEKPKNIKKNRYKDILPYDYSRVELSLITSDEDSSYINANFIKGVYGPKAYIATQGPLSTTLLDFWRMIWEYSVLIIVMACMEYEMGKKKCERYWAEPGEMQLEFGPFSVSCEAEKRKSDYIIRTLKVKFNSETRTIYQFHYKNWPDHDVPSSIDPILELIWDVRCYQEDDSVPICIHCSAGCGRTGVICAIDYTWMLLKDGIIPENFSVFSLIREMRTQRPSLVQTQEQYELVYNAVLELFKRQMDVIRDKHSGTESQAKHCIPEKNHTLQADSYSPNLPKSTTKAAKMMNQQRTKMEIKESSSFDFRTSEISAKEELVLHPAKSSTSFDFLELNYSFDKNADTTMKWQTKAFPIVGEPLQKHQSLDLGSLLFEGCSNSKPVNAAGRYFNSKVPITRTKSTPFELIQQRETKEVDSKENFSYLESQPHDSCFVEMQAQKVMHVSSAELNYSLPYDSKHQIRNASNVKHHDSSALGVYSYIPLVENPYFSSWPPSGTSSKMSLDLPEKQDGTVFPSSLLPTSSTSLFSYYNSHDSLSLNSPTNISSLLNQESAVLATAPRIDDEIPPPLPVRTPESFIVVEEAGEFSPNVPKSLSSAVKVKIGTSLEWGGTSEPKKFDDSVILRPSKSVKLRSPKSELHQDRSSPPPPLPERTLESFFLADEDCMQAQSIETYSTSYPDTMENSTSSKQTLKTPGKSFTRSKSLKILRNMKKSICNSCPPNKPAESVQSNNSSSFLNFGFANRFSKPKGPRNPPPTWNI
Method: as §1

[3] = molecular target: T3, VHR (Dual Specificity Phosphatase 3) (Homo sapiens, UniProt P51452); assay: PhosphataseProfiler screen: VHR; format: biochemical; conditions: replicates
T3 construct: purchased Eurofins Pharma Discovery Services UK
T3 sequence (P51452 whole entry, species assumed): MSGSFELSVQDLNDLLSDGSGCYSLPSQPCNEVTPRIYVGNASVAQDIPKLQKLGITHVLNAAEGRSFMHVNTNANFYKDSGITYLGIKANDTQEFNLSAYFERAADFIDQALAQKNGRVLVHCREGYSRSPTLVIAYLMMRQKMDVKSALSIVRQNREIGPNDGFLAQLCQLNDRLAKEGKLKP
Method: as §1

C57BL/6 mice = assay: 5FU chemotherapy model, hematologic recovery; format: in vivo, mouse
Method: Ten-week-old female C57BL/6 mice received a single tail vein injection of 250 mg/kg 5FU in 100 μL PBS. Two hours post 5FU injection, mice were administered daily subcutaneous injections of 5 mg/kg (100 μg per mouse) DJ001 or vehicle in a volume of 100 μL for 8 days. DJ001 injections were prepared in PBS, 50% PEG-400, and 10% DMSO. Corresponding vehicle injections contained PBS, 50% PEG-400, and 10% DMSO. Retro-orbital blood was collected on day + 8, + 11, and + 14 after 5FU treatment with capillary pipettes (Fisher Scientific). Complete blood counts were measured using a Hemavet 950 instrument (Drew Scientific).

pERK1/2 in BM KSL cells = assay: phospho-ERK1/2 immunofluorescence microscopy; format: cell-based, mouse; conditions: irradiated BM KSL cells
Method: Lab-Tek chamber slides were coated with fibronectin (25 µg/mL, Millipore Sigma #341635). Sorted BM KSL cells (1 × 10^4) were resuspended in 200 µL TSF media and added to each of the pre-coated wells and incubated overnight (37 °C/5% CO2). The next day, cells were serum starved for 30 min and then stimulated with DJ001 (1 µg/mL), EHT1864 (6 µg/mL), or equal volumes of DMSO for 5 min. Cells were washed once with PBS and fixed with 4% PFA for 10 min. Cells were permeabilized with 0.5% Triton/PBS (PRM) for 30 min and then blocked with 5% fetal bovine serum (FBS)/PRM for 1 h. The slide was then incubated with a phospho-ERK1/2 primary antibody (Cell Signaling, #4377, 1:200) for 1 h. The wells were washed three times and then incubated with a donkey anti-rabbit Alexa Fluor 488 secondary antibody (Thermo Fischer, #A21206, 1:200) at a 1:200 concentration for 1 h. The slide was washed three times and mounted with ProLong Gold Antifade Reagent with DAPI. Cells were imaged using a ×63 objective on a Zeiss Axio Imager M2 widefield fluorescence microscope with all microscope settings derived from imaging a secondary only control. Data were analyzed using Fiji (ImageJ). Briefly, the cell outline was identified by threshold levels and the mean fluorescence intensity within the cell area was quantified.

[4] = test system: RAC1-GTP in BM lin− cells; assay: G-LISA activation assay: RAC1-GTP; format: cell-based, mouse; conditions: for RAC1-GTP level (G-LISA): Supplementary Figure 7c
Method: The RAC1-GTP, RHOA-GTP, and CDC42-GTP activation levels in BM lin^− cells were measured using a colorimetric-based RAC1-, RHOA-, and CDC42 G-LISA Activation Assay Kit (Cytoskeleton, Inc.). BM cells from femurs and tibias were isolated from 12-week-old Ptprs^+/+ and Ptprs^−/− mice. Cells were then depleted of lineage-committed cells with Direct Lineage Cell Depletion Kit (Miltenyi Biotec, #130-110-470; 1:5). The BM lin^− cell fraction was then serum starved in Iscove’s modified Dulbecco’s medium (IMDM) and treated with either vehicle (equal amount of DMSO) or 1 μg/mL DJ001 for 10 min at 37 °C. After treatment, cells were washed with ice-cold PBS and then placed in lysis buffer supplemented with protease inhibitor. Lysate concentrations were measured by Pierce^TM BCA Protein Assay Kit (ThermoFisher Scientific). G-LISA was performed according to the manufacturer’s instructions. Briefly, 12.5 μg of lysates was added to a GTP-binding protein pre-coated plate and active RAC1-GTP, RHOA-GTP, or CDC42-GTP levels were measured at 490 nm using a PowerWave XS2 microplate reader (BioTek).

[5] = day +8 following 250 mg/kg 5FU, 5 mg/kg DJ001 SQ daily
[6] = day +11 following 250 mg/kg 5FU, 5 mg/kg DJ001 SQ daily
[7] = day +14 following 250 mg/kg 5FU, 5 mg/kg DJ001 SQ daily

| Compound | Supplementary Figure 1: MKP5 activity [1] | Supplementary Figure 1: PTPN22 activity ([2]; 2.7 μg/mL DJ001) | Supplementary Figure 1: PTPN22 activity ([2]; 0.27 g/mL DJ001) | Supplementary Figure 1: VHR activity ([3]; 2.7 μg/mL DJ001) | Supplementary Figure 1: VHR activity ([3]; 0.27 g/mL DJ001) | PB NEU counts per mouse (Figure 2i right panel) (C57BL/6 mice; day 0 (pre-5FU)) | PB WBCs per mouse (Figure 2i left panel) (C57BL/6 mice; day 0 (pre-5FU)) | PB NEU counts per mouse (Figure 2i right panel) (C57BL/6 mice; [5]) | PB WBCs per mouse (Figure 2i left panel) (C57BL/6 mice; [5]) | PB NEU counts per mouse (Figure 2i right panel) (C57BL/6 mice; [6]) | PB WBCs per mouse (Figure 2i left panel) (C57BL/6 mice; [6]) | PB WBCs and neutrophils vs 5FU control (C57BL/6 mice; day +14) | PB NEU counts per mouse (Figure 2i right panel) (C57BL/6 mice; [7]) | PB WBCs per mouse (Figure 2i left panel) (C57BL/6 mice; [7]) | ERK1/2 phosphorylation (pERK1/2 in BM KSL cells) | RAC1 activation ([4]; BM cells from Ptprs−/− mice, 1 μg/ml DJ001, 10 min) | RAC1-GTP level (G-LISA) ([4]; Ptprs+/+ cells) | RAC1-GTP level (G-LISA) ([4]; Ptprs-/- cells) |
| --- | --- | --- | --- | --- | --- | --- | --- | --- | --- | --- | --- | --- | --- | --- | --- | --- | --- | --- |
| O=C(/C=C\Nc1cccc([N+](=O)[O-])c1)c1ccccc1 [DJ001, (Z)-3-((3-nitrophenyl)amino)-1-phenylprop-2-en-1-one] | 91 and 87 and 88 | 94 (2×) and 89 | 103 and 99 and 94 | 94 and 84 and 95 | 100 and 101 and 98 | 0.64 and 0.92 and 0.54 and 0.52 | 7.24 and 8.98 and 6.9 and 7.26 | 0.01 (2×) and 0.02 (4×) and 0.03 | 0.88 and 0.82 and 0.9 and 1 and 0.86 and 0.8 and 1.44 | 0.08 and 0.14 and 0.11 and 0.12 and 0.07 (2×) and 0.54 | 0.78 and 3.32 and 1.78 and 2.76 and 1.44 and 3.6 and 2.12 | significantly increased PB WBCs and neutrophils | 4.15 and 1.27 and 0.57 and 0.4 and 0.82 and 1.88 and 2.76 | 13.36 and 5.12 and 4.72 and 9.58 and 8.92 and 11.92 and 17.98 | induced ERK1/2 phosphorylation |  |  |  |
| O=C(/C=C\Nc1cc(F)cc(F)c1)c1ccccc1 [DJ009, (Z)-3-((3,5-difluorophenyl)amino)-1-phenylprop-2-en-1-one] |  |  |  |  |  |  |  |  |  |  |  |  |  |  |  | did not induce RAC1 activation | 0.459 and 0.438 and 0.567 | 0.402 and 0.353 and 0.351 and 0.292 |
